Source: patent US20230322805A1, “NOVEL PYRIMIDODIAZEPINE DERIVATIVES OR USES THEREOF” (SPARK BIOPHARMA, INC., priority 2020, published 2023)
Read-outs that look alike come from different tables or passages of the source.

What was measured:
[1] = test system: PERK signaling (p-PERK, p-elF2a, ATF4); experiment: Time course of PERK activation in SH-SY5Y cells (immunoblot); format: cell-based, human
Method: 4-2. PDIA3 and DNAJC3 play a role in regulating tau aggregation by inhibiting the PERK signaling pathway. Accordingly, human neuroblastoma SH-SY5Y cells were treated with 10 μM SB1617, treated with or without thapsigargin, and PERK activation was confirmed over time.
The stress-response potency of SB1617 may be due to upregulation of PDIA3 and DNAJC3 levels or changes in the redox state of partner proteins under ER stress conditions.

[2] = test system: autophagy-related genes regulated by ATF4 in SH-SY5Y cells; experiment: RT-qPCR of autophagy-related genes regulated by ATF4; format: cell-based, human; details: 5 μM SB1617 with 1 μM thapsigargin, 8 hours, versus thapsigargin alone
Method: To analyze the level of autophagy-related genes, SH-SY5Y cells were treated with 1 μM thapsigargin for 8 h in the presence or absence of 5 μM SB1617. Total RNA was extracted using the RNeasy kit (Qiagen) according to the manufacturer's instructions. RNA was quantified using NanoVue (GE Healthcare) and cDNA was prepared with AccuPower CycleScript RT PreMix dT20 (Bioneer) according to the manufacturer's instructions. Quantitative RT-polymerase chain reaction (qRT-PCR) experiments were performed using KAPA SYBR FAST ABI Prism qPCR Master Mix (KAPA Biosystems). Data were analyzed with the comparative Ct method and normalized to housekeeping genes.
5-3. ATF4 is a transcription factor, which rises during elF2a-phosphorylation and upregulates genes related to autophagy and oxidation/reduction control as a recovery mechanism during ER stress. To assure this, 5 μM SB1617 was treated in SH-SY5Y cells for 8 hours in the presence or absence of 1 μM thapsigargin, and then autophagy-related genes regulated by ATF4 were identified with RT-qPCR.

[3] = test system: SOD1 (G93A); experiment: Level of aggregation-prone mutant protein after treatment; format: cell-based; details: SB1617 treatment
Description: (§1) Plasmids pRK5-EGFP-Tau (#46904) and pRK-EGFP-Tau P301 L (#46908) were purchased from Addgene. Plasmids pCMV-SOD1-EGFP and pCMV-SOD1 G93A-EGFP were provided by Seoul National University College of Medicine. Plasmids were transfected in HEK293T cells using Lipofectamine and Opti-MEM (Gibco) based on the manufacturer's instructions. Short interfering RNA duplex (siRNA duplex, BIONEER) for PDIA3 and DNAJC3 was used for PDIA3 and DNAJC3 knockdown experiments. siRNA oligonucleotides were transfected in HEK293 cells stably expressing BiFC-tau using Lipofectamine RNAiMAX (ThermoFisher Scientific) and Opti-MEM (Gibco) based on the manufacturer's instructions.
(§2) 5-6. From the results of Test Examples 5-1 to 5-5, it was hypothesized that if SB1617, a pyrimidiazepine derivative from this invention, regulates protein homeostasis, it will be able to effectively control the level of other proteins that tend to be folded and accumulated incorrectly under ER stress conditions. To confirm this, changes in the level of other aggregation-oriented proteins according to SB1617 treatment were confirmed.
(§3) Tau P301 L is found in FTD patients with Parkinson's disease and is known to accelerate tau aggregation and accumulation in the mouse brain. Htt-Q74 refers to a polyglutamine dilated mutation that causes Huntington's disease. The SOD1 (G93A) mutation level is one of the clinical characteristics of ALS patients.

[4] = test system: tau P301L; experiment: as above; format: cell-based; details: SB1617 treatment
Description: as §1, §2, §3

[5] = Blood-brain barrier penetration test in male ICR mice; format: in vivo, mouse; details: for concentration at 0.5 h / concentration at 3 h: male, 5 mg/kg
Method: After intraperitoneal administration (5 mg/kg, 3.3 mL/kg) of the compound (SB1617, 5% DMSO/[…]) according to the present invention to CD-1 (ICR) male mice (7 weeks old, KOATECH, Korea), blood samples were collected using heparinized tubes at designated time points (0.5 and 3 hours) in the orbital venous plexus, mice were sacrificed, and brain tissues were harvested. Plasma and brain homogenate samples were analyzed with an LC-MS/MS analyzer (Agilent 1260, Agilent 6460). The proportion of the compound according to the invention (SB1617) in brain and plasma was calculated.
6-1. In order to evaluate the suitability of the compound (SB1617) according to this invention in vivo, pharmacokinetic properties and blood-brain barrier penetration properties were identified using male ICR mice according to the methods described in Examples 1-15 and 1-16.
In addition, as shown in FIG. 28 and Table 3, it was confirmed that at least 50% of SB1617 was detected in the brain compared to plasma.

**Q.** For `CN(Cc1ccc(Cl)cc1)c1ncnc2c1[C@@H]1OC[C@H](CN2)N1S(=O)(=O)c1ccc([N+](=O)[O-])cc1` [Compound 117], which “PERK activation over time” value ([1]; 10 μM SB1617, with thapsigargin) is on record?
**A.** prolonged PERK activation

**Q.** What about the “activation of downstream PERK signaling” value ([1]; 10 μM SB1617, without thapsigargin (absence of cell stress)) of the same compound?
**A.** not significant

**Q.** And the “transcription level of autophagy-related genes regulated by ATF4” value [2]?
**A.** increased the transcription level of autophagy-related genes

**Q.** And the “mutation level of SOD (G93A)” value [3]?
**A.** downregulated

**Q.** And the “mutation level of tau P301L” value [4]?
**A.** downregulated

**Q.** And the Kp at 0.5 h ([5]; CD-1 (ICR), mouse, brain, ip, 0.5 h after I.P. 5 mg/kg, read-out: Brain/Plasma ratio)?
**A.** 0.5 ± 0.14

**Q.** And the Kp at 3 h ([5]; CD-1 (ICR), mouse, brain, ip, 3 h after I.P. 5 mg/kg, read-out: Brain/Plasma ratio)?
**A.** 0.66 ± 0.21

**Q.** What about the Kp ([5]; CD-1 (ICR), mouse, in vivo, ip, I.P. 5 mg/kg, read-out: SB1617 detected in the brain compared to plasma) of the same compound?
**A.** ≥ 0.5

**Q.** What about the blood-brain barrier crossing ([5]; intraperitoneal injection) of the same compound?
**A.** sufficient blood-brain barrier crossing

**Q.** And the concentration at 0.5 h ([5]; CD-1 (ICR), mouse, in vivo, ip, 0.5 h after I.P. 5 mg/kg, read-out: Concentration, Brain tissue)?
**A.** 421 ± 58.2 ng/mL

**Q.** What about the concentration at 0.5 h ([5]; CD-1 (ICR), mouse, in vivo, ip, 0.5 h after I.P. 5 mg/kg, read-out: Concentration, Plasma) of the same compound?
**A.** 885 ± 187 ng/mL

**Q.** And the concentration at 3 h ([5]; CD-1 (ICR), mouse, in vivo, ip, 3 h after I.P. 5 mg/kg, read-out: Concentration, Brain tissue)?
**A.** 55.9 ± 5 ng/mL

**Q.** What about the concentration at 3 h ([5]; CD-1 (ICR), mouse, in vivo, ip, 3 h after I.P. 5 mg/kg, read-out: Concentration, Plasma) of the same compound?
**A.** 92.4 ± 29.8 ng/mL
